In US10406218B2 (priority 2014, dated 2019):

Test system: PBMC from 30 HC individuals
Experiment: ex vivo IFNγ ELISPOT with NTM-specific peptides
Assay type: cell-based, human
Settings: NTM-specific peptides (Table 2); for Resp Freq: response frequency among HC donors; for Total SFC: total spot forming cells, IFNγ ELISPOT

| Substance | Resp Freq [%] | Total SFC [SFC] |
| --- | --- | --- |
| 47 (VEFFRAVPVLIMMIF) [Peptide 47] | 3 | 40 |
| 78 (IVGAALFLASDASSF) [Peptide 78] | 3 | 32 |
| 88 (ALVLVSLLTALAAGI) [Peptide 88] | 3 | 28 |
| 106 (GLSSAWLSLIFAEMI) [Peptide 106] | 3 | 55 |
| 175 (LDYFLNLMLRAPFRL) [Peptide 175] | 3 | 32 |
| 205 (TTSLAFLVAFRPGLV) [Peptide 205] | 3 | 45 |
| 257 (FFHIYGMTVLLNAAL) [Peptide 257] | 3 | 35 |
| 281 (IVAHYILQYATEELR) [Peptide 281] | 3 | 25 |
| 323 (MIEMLAMSDLSLMVK) [Peptide 323] | 3 | 38 |
| 387 (RGQFWIWAGANIAPI) [Peptide 387] | 3 | 47 |
| 397 (ALMNQFISLLKASSL) [Peptide 397] | 3 | 40 |
| 400 (MKELLAENLMVMMRD) [Peptide 400] | 3 | 32 |
| 405 (PLVYFIDSMLQVDDL) [Peptide 405] | 3 | 33 |
| 417 (GVVAAIIAYNYPNQL) [Peptide 417] | 3 | 28 |
| 421 (DPAFRQVFAAQFLPD) [Peptide 421] | 3 | 40 |
| 424 (AVPNFALTPLLIIWM) [Peptide 424] | 3 | 55 |
| 438 (GSVLLVQALLVTSLL) [Peptide 438] | 3 | 25 |
| 439 (GMVFQSFNLFAHKTI) [Peptide 439] | 3 | 28 |
| 447 (DDRRTLLWLANQRAV) [Peptide 447] | 3 | 53 |
| 531 (LDSFQLFPNFVILFW) [Peptide 531] | 3 | 28 |
| 537 (VEPVDISNAVLFLAS) [Peptide 537] | 3 | 43 |
| 538 (VEVVSAEALQLPLWG) [Peptide 538] | 3 | 30 |
| 540 (VVYAFMSLFVVNVVV) [Peptide 540] | 3 | 25 |
| 543 (VIMPWMIFYQQGAVV) [Peptide 543] | 3 | 43 |
| 586 (ELVWLGAAMIIGAGS) [Peptide 586] | 3 | 37 |
| 588 (HLFQVMAFVVMEPPT) [Peptide 588] | 3 | 52 |
| 621 (AKVLGVFLVTEIVML) [Peptide 621] | 3 | 27 |

| Substance | Resp Freq [%] | Total SFC [SFC] |
| --- | --- | --- |
| 626 (ARAGFAASGVLHLLV) [Peptide 626] | 3 | 48 |
| 628 (LGVFPLIVMFLITSI) [Peptide 628] | 3 | 53 |
| 629 (VQFMPLVIAPQLLLC) [Peptide 629] | 3 | 37 |
| 645 (PASILILFAPGAPRE) [Peptide 645] | 3 | 23 |
| 646 (ADAVNFGVAPAFIVY) [Peptide 646] | 3 | 37 |
| 651 (FSWFAAGMVLAELTV) [Peptide 651] | 3 | 22 |
| 658 (VRRVLPALMNQFISL) [Peptide 658] | 3 | 32 |
| 659 (GLLYVPQLATISATF) [Peptide 659] | 3 | 38 |
| 672 (ASGTLLFKLTPWIVV) [Peptide 672] | 3 | 25 |
| 691 (LANPGIVSIPLAFIL) [Peptide 691] | 3 | 23 |
| 697 (RSLMFPTLASLIEER) [Peptide 697] | 3 | 25 |
| 712 (VVLMIFRPQGLFPAR) [Peptide 712] | 3 | 27 |
| 713 (EGELHLFTPEVVFLL) [Peptide 713] | 3 | 30 |
| 714 (AFTHFALLANVAEDI) [Peptide 714] | 3 | 35 |
| 718 (LGPTAGLTVASALLV) [Peptide 718] | 3 | 28 |
| 732 (PLRVAFLIVLIGTTV) [Peptide 732] | 3 | 33 |
| 745 (VFALMGLRQLYFLLG) [Peptide 745] | 3 | 35 |
| 760 (AEWVVRTILSLLTVR) [Peptide 760] | 3 | 38 |
| 787 (DVDIDQLRSFLADKV) [Peptide 787] | 3 | 38 |
| 804 (NSSIVLISLPAIFRG) [Peptide 804] | 3 | 57 |
| 841 (PQFLIMPKLIPALIA) [Peptide 841] | 3 | 48 |
| 861 (MVFATLLPLGVLQLY) [Peptide 861] | 3 | 47 |
| 865 (TPLFMAHYAPFGLLT) [Peptide 865] | 3 | 25 |
| 871 (LVYLVGFKTKVSTLL) [Peptide 871] | 3 | 28 |
| 883 (EWFARILFSLFSTPS) [Peptide 883] | 3 | 28 |
| 898 (GQRVITLLASANRDE) [Peptide 898] | 3 | 23 |
